Legend:
Assay type in all cases: in vivo
[1] = test system: Amaranthus retroflexus (AMARE); assay: Post-emergence herbicidal action against AMARE
Method in brief: (§1)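 Post-emergence greenhouse spray, one-leaf stage, 600 l/ha water plus 0.5% additive; WP or EC formulations; application rates 320 g/ha or lower. Visual % damage vs untreated controls at ~3 weeks.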

[2] = test system: Abutilon theophrasti (ABUTH); assay: Pre-emergence herbicidal action against ABUTH; settings: 100% = plants have died
Method in brief: (§2)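 Read-out is visual percent damage relative to untreated pots, with 100% meaning dead plants and 0% meaning no difference, assessed roughly three weeks after treatment. Compounds were applied pre-emergence to the covering soil at up to 320 g/ha.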

[3] = test system: Alopecurus myosuroides (ALOMY); assay: Post-emergence herbicidal action against ALOMY; settings: visual rating about 3 weeks after treatment vs untreated controls (100% = plants have died, 0% = like control plants)
Method in brief: as §1

[4] = test system: Verconica persica (VERPE); assay: Pre-emergence herbicidal action against VERPE
Method in brief: as §2

Lolium rigidum (LOLRI) = assay: Post-emergence herbicidal action against LOLRI
Method in brief: as §1

[5] = test system: Alopecurus myosuroides (ALOMY); assay: Pre-emergence herbicidal action against ALOMY; settings: scored visually after about 3 weeks, 100% = plants have died
Method in brief: as §2

[6] = test system: Amaranthus retroflexus (AMARE); assay: Pre-emergence herbicidal action against AMARE; settings: visual scoring after about 3 weeks vs untreated controls
Method in brief: as §2

Avena fatua (AVEFA) = assay: Pre-emergence herbicidal action against AVEFA; settings: visual scoring after about 3 weeks vs untreated controls
Method in brief: as §2

[7] = test system: Matricaria inodora (MATIN); assay: Post-emergence herbicidal action against MATIN
Method in brief: as §1

[8] = test system: Echinochloa crus-galli (ECHCG); assay: Post-emergence herbicidal action against ECHCG
Method in brief: as §1

[9] = 80 g/ha, visual rating about 3 weeks after treatment vs untreated controls (100% = plants have died, 0% = like control plants)
[10] = 320 g/ha, visual rating about 3 weeks after treatment
[11] = 80 g/ha, scored visually after about 3 weeks vs untreated controls, 0% = like control plants
[12] = Dosage column 320 g/ha (title prints 3200 g/ha), scored visually after about 3 weeks

Row | SMILES | Post-emergence action against AMARE in % [1, 9] [%] | Post-emergence action against AMARE in % [1, 10] [%] | Pre-emergence action against ABUTH [2, 11] [%] | Pre-emergence action against ABUTH [2, 12] [%] | Post-emergence action against ALOMY in % ([3]; 80 g/ha) [%] | Post-emergence action against ALOMY in % ([3]; 320 g/ha) [%] | Pre-emergence action against VERPE in % ([4]; dosage 320 g/ha) [%] | Post-emergence action against LOLRI in % (Lolium rigidum (LOLRI); dosage 80 g/ha) [%] | Post-emergence action against LOLRI in % (Lolium rigidum (LOLRI); dosage 320 g/ha) [%] | Pre-emergence action against ALOMY ([5]; 320 g/ha) [%] | Pre-emergence action against AMARE in % ([6]; 80 g/ha) [%] | Pre-emergence action against AMARE in % ([6]; 320 g/ha) [%] | Pre-emergence action against AVEFA in % (Avena fatua (AVEFA); 320 g/ha) [%] | Post-emergence action against MATIN in % ([7]; dosage 320 g/ha) [%] | Post-emergence action against ECHCG in % ([8]; dosage 80 g/ha) [%] | Post-emergence action against ECHCG in % ([8]; dosage 320 g/ha) [%] | Pre-emergence action against VERPE in % ([4]; dosage 80 g/ha) [%] | Pre-emergence action against ALOMY ([5]; 80 g/ha) [%] | Pre-emergence action against AVEFA in % (Avena fatua (AVEFA); 80 g/ha) [%] | Post-emergence action against MATIN in % ([7]; dosage 80 g/ha) [%]
1 | COC(=O)[C@@H](C)Oc1nn(-c2ncccc2F)c(-c2ccc(F)nc2)c1I [Example I-341] | 80 | 80 | 90 | 90 | 80 | 100 | 100 | 90 | 90 | 100 | 100 | 100 | 90 | 90 | 100 | 100 | – | – | – | –
2 | COC(=O)C(C)NC(=O)[C@@H](C)Oc1nn(-c2ccccn2)c(-c2cncc(F)c2)c1Cl (some centres unmarked) [Example I-199] | 80 | 90 | 80 | 90 | – | 90 | 100 | 90 | 90 | 90 | 100 | 100 | 90 | 80 | 90 | 90 | 90 | 90 | 80 | –
3 | C[C@@H](Oc1nn(-c2ccccn2)c(-c2cncc(F)c2)c1Cl)C(=O)O [Example I-218] | 80 | 80 | 80 | 90 | – | 90 | 100 | 80 | 90 | 90 | 100 | 100 | 90 | 80 | 80 | 90 | 90 | 90 | 80 | –
4 | COC(=O)[C@@H](C)Oc1nn(-c2nc(F)ccc2F)c(-c2cncc(F)c2)c1Br [Example I-191] | 80 | 80 | – | 90 | 80 | 90 | 100 | 90 | 90 | 90 | 90 | 100 | 100 | 80 | 80 | 80 | 100 | 80 | – | –
5 | CCOC(=O)[C@@H](C)Oc1nn(-c2ncccc2F)c(-c2ccc(F)nc2)c1C1CC1 [Example I-375] | 80 | 80 | – | 100 | 100 | 100 | 100 | 90 | 90 | 90 | 100 | 100 | 100 | 80 | 90 | 90 | 100 | 80 | 90 | –
6 | COC(=O)[C@@H](C)Oc1nn(-c2ncccc2F)c(-c2ccc(F)nc2)c1C(F)(F)F [Example I-331] | 80 | 80 | 80 | 90 | 100 | 100 | 100 | 90 | 90 | 100 | 100 | 100 | 100 | 80 | 90 | 90 | 100 | 100 | 100 | 80
7 | C[C@@H](Oc1nn(-c2ncccc2F)c(-c2ccc(F)nc2)c1C1CC1)C(=O)O [Example I-342] | 90 | 90 | – | 90 | 100 | 100 | 100 | 90 | 90 | 100 | 100 | 100 | 100 | 100 | 90 | 90 | 90 | 100 | 90 | –

— patent US20240041042A1, “1-(PYRIDYL)-5-AZINYLPYRAZOLE DERIVATIVES, AND THEIR USE FOR CONTROL OF UNDESIRED PLANT GROWTH” (Bayer Aktiengesellschaft, priority 2020, published 2024)
